Converted amounts (≈) assume the structure as drawn.
Columns and labels:
[1] = In vitro release of paclitaxel from polymeric formulations; type: physicochemical; conditions: for paclitaxel released: 10 days in PBS
Method: The tube was incubated at 37° C. with gentle rotational mixing. […] The supernatant (10 ml) was extracted with 1 ml methylene chloride. […] The injection volume was 20 μl and the flow rate was 1 ml/minute.
An equal volume of PBS was replaced in each tube to maintain sink conditions throughout the study.
Sampling daily (three sampling at the first day) to maintain the sink condition.

neutrophils = test: Superoxide anion generation by neutrophils; type: cell-based, human; conditions: 28 μM
Method: All experiments that studied neutrophil responses to crystals or zymosan in the presence of paclitaxel were performed using plasma opsonized CPPD or zymosan. Opsonization of crystals or zymosan was done with 50% heparinized plasma at a concentration of 75 mg of CPPD or 12 mg of zymosan per ml of 50% plasma Crystals or zymosan were incubated with plasma for 30 minutes at 37° C. and then washed in excess HBSS.
Neutrophil viability and purity was always greater than 90%.
Superoxide anion concentrations were measured using the superoxide dismutase inhibitable reduction of cytochrome C assay. Briefly, 25 mg of crystals or 0.5 mg of zymosan was placed in a 1.5 ml capped Eppendorf tube and warmed to 37° C. 0.5 ml of cells at 37° C. were added together with ferricytochrome C (final concentration 1.2 mg/ml) and the cells were activated by shaking the capped tubes. At appropriate times tubes were centrifuged at 10,000 g for 10 seconds and the supernatant collected for assay be measuring the absorbance of 550 nm. Control tubes were set up under the same conditions with the inclusion of superoxide dismutase at 600 units per ml.

NF-κB = NF-κB activity (cell-based) reporter assay in NIH-3T3; parameters: species or system murine; conditions: 6-hour and 24-hour treatments
Method: IL-1 and TNF were both identified as being proinflammatory cytokines that activate the transcription of genes driven by a transcription factor named NF-κB also involved in inflammatory processes. The inflammatory effect of IL-1 and TNF can therefore be indirectly assessed by means of a reporter gene assay (NF-κB) responding to IL-1 and TNF stimulation.
On day one, 5×10^4 NIH-3T3 (murine fibroblast), stably transfected with a NF-κB reporter construct (Luciferase, Promega Corp.), were plated per well (24-well plate). Once confluent (on day 3-4), cells were starved by replacing the complete medium with 1 ml of serum-free medium. Following a 24-hour starvation, cells were treated with various concentrations of anti-microtubule agents 6 hours prior to the addition of IL-1 (20 ng/ml) and TNF (20 ng/ml). Cells were exposed to IL-1 and TNF for 1 hour and 16 hours and NF-κB activity measured 24 hours later. On day five, the medium was discarded and the cells were rinsed once with PBS. Cells were then extracted for 15 minutes with 250 μl of lysis buffer (Promega Corp., Wisconsin). NF-κB transcriptional activity was assessed by adding 25 μl of luciferase substrate to a tube containing 2.5 μl of cell extract. The tube was immediately inserted in a luminometer (Turner Designs) and light emission measured for 10 seconds. The luciferase data were then normalized for protein concentration.

chondrocytes = test: Viability of non-proliferating chondrocytes (trypan blue); type: cell-based; conditions: up to 10^−5 M, 72 hours
Text: While it is important that a disease-modifying agent be capable of strongly inhibiting a variety of inappropriate cellular activities (proliferation, inflammation, proteolytic enzyme production) which occur in excess during the development of chronic inflammation, it must not be toxic to the normal tissues. It is particularly critical that normal cells not be damaged, as this would lead to progression of the disease.

[2] = Solubility / complexation of paclitaxel with cyclodextrins; type: physicochemical
Method: The mobile phase was composed of a mixture of acetonitrile, methanol and water (58:5:37) at a flow rate of 1.0 ml/minute.

collagenase (MMP-1) mRNA = test: IL-1 induced collagenase mRNA expression in chondrocytes (Northern blot); type: cell-based, calf
Method: Total RNA was isolated, and the MMP-1 mRNA levels were determined by Northern blot analysis. The blots were subsequently stripped and reprobed with ^32P-radiolabeled rat GAPDH cDNA, which was used as a housekeeping gene. The results shown are representative of four independent experiments. Quantitation of collagenase-1 and stromelysin-expression mRNA levels. The MMP-1 and MMP-3 expression levels were normalized with GAPDH.
Primary chondrocyte cultures were freshly isolated from calf cartilage. The cells were plated at 2.5×10^6 per ml in 100×20 mm culture dishes and incubated in Ham's F12 medium containing 5% FBS overnight at 37° C. […] IL-1 (20 ng/ml) was then added to each plate and the plates incubated for an additional 18 hours. Total RNA was isolated by the acidified guanidine isothiocyanate method and subjected to electrophoresis on a denatured gel. Denatured RNA samples (15 μg) were analyzed by gel electrophoresis in a 1% denatured gel, transferred to a nylon membrane and hydridized with the ^32P-labeled collagenase cDNA probe. ^32P-labeled glyceraldehyde phosphate […] (GAPDH) cDNA as an internal standard to ensure roughly equal loading. The exposed films were scanned and quantitatively analyzed with ImageQuant.

Structure (SMILES): CC(=O)O[C@H]1C(=O)[C@@]2(C)[C@H]([C@H](OC(=O)c3ccccc3)[C@]3(O)C[C@H](OC(=O)[C@H](O)[C@@H](NC(=O)c4ccccc4)c4ccccc4)C(C)=C1C3(C)C)[C@]1(OC(C)=O)CO[C@@H]1C[C@@H]2O [paclitaxel]
- paclitaxel released ([1]; 5 mg of 30% loaded PLLA microspheres): 400 µg
- released fraction of total drug content ([1]; 5% paclitaxel loaded PCL microspheres, after 21 days, PBS 37° C.): about 20%
- paclitaxel released ([1]; 10% loaded PLLA microspheres): 150 µg
- released paclitaxel ([1]; 20% paclitaxel loaded 0:100 PDLLA:PCL (PCL) paste, within 10 days): 6%
- released paclitaxel ([1]; 20% paclitaxel loaded 70:30 PDLLA:PCL paste, within 10 days): 11%
- released paclitaxel ([1]; 20% paclitaxel loaded 80:20 PDLLA:PCL paste, within 10 days): 17%
- released paclitaxel ([1]; 20% paclitaxel loaded 90:10 PDLLA:PCL paste, within 10 hours): 25-35%
- released paclitaxel ([1]; 20% paclitaxel loaded PDLLA-PEG-PDLLA cylinder, 20% PEG, 1 mm, 30 days): 2%
- released paclitaxel ([1]; 20% paclitaxel loaded PDLLA-PEG-PDLLA cylinder, 30% PEG, 0.65 mm, 30 days): 26%
- released paclitaxel ([1]; 20% paclitaxel loaded PDLLA-PEG-PDLLA cylinder, 30% PEG, 1 mm, 30 days, PBS albumin 37° C.): 17%
- drug released ([1]; paclitaxel-nylon microcapsules, after 72 hours): more than 95%
- inhibition of superoxide anion production (neutrophils; opsonized zymosan): less dramatic than the inhibition of CPPD activation but was significant at all times
- superoxide anion production (neutrophils; plasma opsonized CPPD crystals): decrease in the amount of superoxide generated at all times
- inhibitory effect on IL-1- and TNF-induced NF-κB activity (NF-κB): ~2 µM
- viability of normal non-proliferating cells (chondrocytes): does not affect the viability
- solubility ([2]; 50% HPβ-CD in water, aqueous with cosolvent or surfactant or cyclodextrin, thermodynamic from solid, 50% solution of HPβ-CD in water, 37° C.): 3200 µg/mL (≈ 3.75 mM)
- increase over the solubility of paclitaxel in water ([2]; 50% solution of HPβ-CD in water, 37° C.): ~2000 fold
- apparent stability constant ([2]; HPβ-CD in the presence of 50% ethanol): 26.57 M⁻¹
- stability constant, first order complex ([2]; HPβ-CD, 37° C.): 7.2 M⁻¹
- stability constant lower than in the absence of ethanol ([2]; HPβ-CD, 50% ethanol): about 300 times
- stability constant, first order complex ([2]; HPγ-CD, 37° C.): 5.8 M⁻¹
- stability constant, first order complex ([2]; γ-CD, 37° C.): 3.1 M⁻¹
- concentration inhibiting collagenase expression in vitro (collagenase (MMP-1) mRNA): 10^−6 M
- collagenase mRNA levels (collagenase (MMP-1) mRNA; 10^−5 M, pretreatment 24 hours, IL-1): complete inhibition

From US6689803B2, “Compositions and methods for treating surgical adhesions” (Angiotech Pharmaceuticals, Inc., priority 1996, dated 2004)
